Test results: patent US20220395003A1, “Methods for Use in Food Processing and Preservation” (priority 2019, published 2022)

Columns and labels:
[1] = test system: microbial growth on the surface of beef carcasses; assay: Microbiological analysis of beef carcass surface after treatment (Example 1)
Method: (§1) A 0.3% aqueous solution of chitosan formed as described above having 0.01% sodium sulfite and 0.1% acetic acid was poured into a commercial dry vapor steam cleaning unit and allowed to equilibrate for about 15 minutes. The steam was applied to a beef carcass by the method of […] as disclosed in U.S. Pat. No. 9,149,036 which is incorporated herein by reference in its entirety. For comparison, a beef carcass was sprayed with an aqueous solution of about 3% acetic acid by standard methods known in the art. Prior to applying the chitosan steam or the aqueous acetic acid solution, the beef carcasses were washed thoroughly with hot water. The beef carcasses were maintained at 4 degrees centigrade.

[2] = test system: microbial growth on the surface of beef carcass; assay: Microbiological analysis of low and high surface areas of beef carcass (Example 2)
Method: as §1, with “centigrade. Microbiological analysis was performed on the surface of the carcasses at pretreatment and at 1, 24, and 72 hours after treatment. […] The study in Example 1 was repeated, applying the previously-described 0.3% chitosan, acetic acid, and sodium sulfite solution on a low surface area and a high surface area of a beef carcass.” for “centigrade.”

For `CC(=O)O` [Water wash + acetic acid, acetic acid], the microbial growth ([1]; Flank, 0 h (pretreatment), 4 degrees centigrade) was 2.60 log colony forming units, the microbial growth ([1]; Flank, 1 h after treatment) was 2.10 log colony forming units and the microbial growth ([1]; Flank, 24 h after treatment) was 2.10 log colony forming units. The microbial growth ([1]; Flank, 72 h after treatment) was 2.00 log colony forming units, the microbial growth ([1]; Loin, 0 h (pretreatment), 4 degrees centigrade) was 3.70 log colony forming units and the microbial growth ([1]; Loin, 1 h after treatment) was 2.40 log colony forming units. The microbial growth ([1]; Loin, 24 h after treatment) was 1.80 log colony forming units, the microbial growth ([1]; Loin, 72 h after treatment) was 2.00 log colony forming units and the microbial growth ([2]; High (A) surface, 1 h) was 1.59 log colony forming units. It also gave a microbial growth ([2]; High (A) surface, 48 h) of 1.35 log colony forming units, a microbial growth ([2]; High (A) surface, 168 h) of 1.49 log colony forming units and a microbial growth ([2]; High (B) surface, 1 h) of 2.03 log colony forming units. It also gave a microbial growth ([2]; High (B) surface, 48 h) of 1.80 log colony forming units, a microbial growth ([2]; High (B) surface, 168 h) of 1.77 log colony forming units and a microbial growth ([2]; High (C) surface, 1 h) of 1.88 log colony forming units. It also gave a microbial growth ([2]; High (C) surface, 48 h) of 1.65 log colony forming units, a microbial growth ([2]; High (C) surface, 168 h) of 1.43 log colony forming units and a microbial growth ([2]; Low (A) surface, 1 h) of 1.53 log colony forming units. It also gave a microbial growth ([2]; Low (A) surface, 48 h) of 1.09 log colony forming units, a microbial growth ([2]; Low (A) surface, 168 h) of 0.00 log colony forming units and a microbial growth ([2]; Low (B) surface, 1 h) of 1.73 log colony forming units. The microbial growth ([2]; Low (B) surface, 48 h) was 1.57 log colony forming units, the microbial growth ([2]; Low (B) surface, 168 h) was 1.45 log colony forming units and the microbial growth ([2]; Low (C) surface, 1 h) was 0.43 log colony forming units. For the same molecule, the microbial growth ([2]; Low (C) surface, 48 h) was 0.94 log colony forming units and the microbial growth ([2]; Low (C) surface, 168 h) was 1.35 log colony forming units.
